Measured values: US20180000085A1, “USE OF PICOLINAMIDE COMPOUNDS WITH FUNGICIDAL ACTIVITY” (DOW AGROSCIENCES LLC, priority 2014, published 2018)

Key:
[1] = tested on: Zymoseptoria tritici; assay: Leaf blotch of wheat (SEPTTR) disease control on wheat seedlings; assay type: in vivo; design: key to SEPTTR 1DP, HV activity at 100 ppm (% control rating) / SEPTTR 3DC, HV activity at 100 ppm (% control rating) / SEPTTR disease control, 1DP / SEPTTR disease control, 3DC / SEPTTR 1DP disease control rating, HV activity / SEPTTR 3DC disease control rating, HV activity / SEPTTR 3DC, LV activity at 125.1 g/H (% Control rating) / SEPTTR 1DP, LV activity at 125.1 g/H (% Control rating) / SEPTTR 1DP disease control rating, LV activity at 125.1 g/H / SEPTTR 3DC disease control rating, LV activity at 125.1 g/H / SEPTTR 3DC disease control rating, HV activity at 100 ppm / SEPTTR 1DP disease control rating, HV activity at 100 ppm / HV activity at 100 ppm SEPTTR 3DC (disease control rating) / HV activity at 100 ppm SEPTTR 1DP (disease control rating) / LV activity at 125.1 g/H SEPTTR 1DP (disease control rating) / LV activity at 125.1 g/H SEPTTR 3DC (disease control rating): A: > 80; B: ≤ 80; C: Not Tested; D: No Activity Observed in the Reported Assay; conditions: for SEPTTR 1DP disease control rating, LV activity at 125.1 g/H / SEPTTR 1DP disease control rating, HV activity at 100 ppm: 1 day protectant; for SEPTTR 3DC disease control rating, LV activity at 125.1 g/H / SEPTTR 3DC disease control rating, HV activity at 100 ppm: 3 day curative; for SEPTTR 1DP disease control rating, HV activity / SEPTTR 3DC disease control rating, HV activity: HV application at 100 ppm
Description: (§1) All fungicides were evaluated using the aforementioned method for their activity vs. all target diseases, unless stated otherwise. Wheat leaf blotch and brown rust activity were also evaluated using track spray applications, in which case the fungicides were formulated as EC formulations, containing 0.1% Trycol 5941 in the spray solutions. Wheat plants (variety Yuma) were grown from seed in a greenhouse in 50% mineral soil/50% soil-less Metro mix until the first leaf was fully emerged, with 7-10 seedlings per pot. These plants were inoculated with an aqueous spore suspension of Zymoseptoria tritici either prior to or after fungicide treatments. After inoculation the plants were kept in 100% relative humidity (one day in a dark dew chamber followed by two to three days in a lighted dew chamber at 20° C.) to permit spores to germinate and infect the leaf. The plants were then transferred to a greenhouse set at 20° C. for disease to develop. When disease symptoms were fully expressed on the 1st leaves of untreated plants, infection levels were assessed on a scale of 0 to 100 percent disease severity. Percent disease control was calculated using the ratio of disease severity on treated plants relative to untreated plants.

[2] = tested on: Puccinia triticina; assay: Wheat brown rust (PUCCRT) disease control on wheat seedlings; assay type: in vivo; design: key to PUCCRT 3DC, HV activity at 100 ppm (% control rating) / PUCCRT disease control, 3DC / PUCCRT 1DP disease control rating, HV activity / PUCCRT 3DC disease control rating, HV activity / PUCCRT 3DC, LV activity at 125.1 g/H (% Control rating) / PUCCRT 1DP, LV activity at 125.1 g/H (% Control rating) / PUCCRT 3DC disease control rating, LV activity at 125.1 g/H / PUCCRT 1DP disease control rating, LV activity at 125.1 g/H / PUCCRT 3DC disease control rating, HV activity at 100 ppm / PUCCRT 1DP disease control rating, HV activity at 100 ppm / HV activity at 100 ppm PUCCRT 3DC (disease control rating) / LV activity at 125.1 g/H PUCCRT 1DP (disease control rating) / LV activity at 125.1 g/H PUCCRT 3DC (disease control rating): A: > 80; B: ≤ 80; C: Not Tested; D: No Activity Observed in the Reported Assay; conditions: for PUCCRT 1DP disease control rating, LV activity at 125.1 g/H / PUCCRT 1DP disease control rating, HV activity at 100 ppm: 1 day protectant; for PUCCRT 3DC disease control rating, LV activity at 125.1 g/H / PUCCRT 3DC disease control rating, HV activity at 100 ppm: 3 day curative; for PUCCRT 1DP disease control rating, HV activity / PUCCRT 3DC disease control rating, HV activity: HV application at 100 ppm
Description: as §1, with “plants. Example B: Evaluation of Fungicidal Activity: Wheat Brown Rust (Puccinia triticina; Synonym: Puccinia recondita f. sp. Tritici; Bayer Code PUCCRT) Wheat plants (variety Yuma) were grown from seed in a greenhouse in 50% mineral soil/50% soil-less Metro mix until the first leaf was fully emerged, with 7-10 seedlings per pot. These plants were inoculated with an aqueous spore suspension of Puccinia triticina either prior to or after fungicide treatments. […] The plants were then transferred to a greenhouse set at 24° C. for disease to develop. Fungicide formulation, application and disease assessment followed the procedures as described in the Example A.” for “plants.”

[3] = low volume application, 125.1 g/H
[4] = low volume application, 125.1 g/H, 1 Day Protectant
[5] = low volume application, 125.1 g/H, 3 Day Curative
[6] = 1 Day Protectant, wheat leaf blotch
[7] = 3 Day Curative, wheat leaf blotch
[8] = 1 Day Protectant, wheat brown rust
[9] = 3 Day Curative, wheat brown rust
[10] = HV activity at 100 ppm, 1 Day Protectant, wheat
[11] = HV activity at 100 ppm, 3 Day Curative, wheat
[12] = high volume application, 100 ppm, 1DP
[13] = high volume application, 100 ppm, 3DC
[14] = high volume application, 100 ppm

Compound: COc1ccnc(C(=O)NC(C)C(=O)OC(C)C(Oc2ccc(Cl)cc2Cl)c2ccccc2)c1OC(C)=O (centres unmarked) [Cmpd 867]
- SEPTTR 1DP disease control rating, LV activity at 125.1 g/H [1, 3]: A (> 80)
- SEPTTR 3DC disease control rating, LV activity at 125.1 g/H [1, 3]: A (> 80)
- PUCCRT 1DP disease control rating, LV activity at 125.1 g/H [2, 3]: A (> 80)
- PUCCRT 3DC disease control rating, LV activity at 125.1 g/H [2, 3]: B (≤ 80)

Compound: COc1ccnc(C(=O)N[C@@H](C)C(=O)O[C@@H](C)[C@H](Oc2ccc(Cl)cc2Cl)C(C)C)c1OCOC(=O)C(C)C [Cmpd 572]
- SEPTTR 1DP, LV activity at 125.1 g/H (% Control rating) [1, 4]: B (≤ 80)
- SEPTTR 3DC, LV activity at 125.1 g/H (% Control rating) [1, 5]: B (≤ 80)
- PUCCRT 1DP, LV activity at 125.1 g/H (% Control rating) [2, 4]: A (> 80)
- PUCCRT 3DC, LV activity at 125.1 g/H (% Control rating) [2, 5]: A (> 80)

Compound: COc1ccnc(C(=O)N[C@@H](C)C(=O)O[C@@H](C)[C@H](Oc2ccc(Cl)cc2)C(C)C)c1O [Cmpd 359]
- SEPTTR 1DP disease control rating, HV activity [1, 6]: A (> 80)
- SEPTTR 3DC disease control rating, HV activity [1, 7]: A (> 80)
- PUCCRT 1DP disease control rating, HV activity [2, 8]: A (> 80)
- PUCCRT 3DC disease control rating, HV activity [2, 9]: A (> 80)

Compound: C=CC[C@@H](OCC(=C)C)[C@H](C)OC(=O)[C@H](C)NC(=O)c1nccc(OC)c1OC(C)=O [Cmpd 1074]
- LV activity at 125.1 g/H SEPTTR 1DP (disease control rating) ([1]; low volume application, 125.1 g/H, 1 Day Protectant, wheat leaf blotch): D
- LV activity at 125.1 g/H SEPTTR 3DC (disease control rating) ([1]; low volume application, 125.1 g/H, 3 Day Curative, wheat leaf blotch): D
- LV activity at 125.1 g/H PUCCRT 1DP (disease control rating) ([2]; low volume application, 125.1 g/H, 1 Day Protectant, wheat brown rust): D
- LV activity at 125.1 g/H PUCCRT 3DC (disease control rating) ([2]; low volume application, 125.1 g/H, 3 Day Curative, wheat brown rust): B (≤ 80)

Compound: CCCOC(CC)C(Oc1ccccc1)C(C)OC(=O)C(CC)NC(=O)c1nccc(OC)c1O (centres unmarked) [Cmpd 296]
- SEPTTR disease control, 1DP [1, 10]: B (≤ 80)
- SEPTTR disease control, 3DC [1, 11]: B (≤ 80)
- SEPTTR 1DP disease control rating, HV activity [1, 6]: B (≤ 80)
- SEPTTR 3DC disease control rating, HV activity [1, 7]: B (≤ 80)
- SEPTTR 1DP, HV activity at 100 ppm (% control rating) [1, 12]: B (≤ 80)
- SEPTTR 3DC, HV activity at 100 ppm (% control rating) [1, 13]: B (≤ 80)
- PUCCRT disease control, 1DP [2, 10]: B (≤ 80)
- PUCCRT disease control, 3DC [2, 11]: A (> 80)
- PUCCRT 1DP disease control rating, HV activity [2, 8]: B (≤ 80)
- PUCCRT 3DC disease control rating, HV activity [2, 9]: A (> 80)
- PUCCRT 1DP, HV activity at 100 ppm (% control rating) [2, 12]: B (≤ 80)
- PUCCRT 3DC, HV activity at 100 ppm (% control rating) [2, 13]: A (> 80)

Compound: COc1ccnc(C(=O)N[C@@H](C)C(=O)O[C@@H](C)[C@H](Oc2cccc(F)c2)c2cccc(-c3ccccc3)c2)c1OCOC(C)=O [Cmpd 874]
- SEPTTR 1DP disease control rating, LV activity at 125.1 g/H [1, 3]: A (> 80)
- SEPTTR 3DC disease control rating, LV activity at 125.1 g/H [1, 3]: B (≤ 80)
- PUCCRT 1DP disease control rating, LV activity at 125.1 g/H [2, 3]: A (> 80)
- PUCCRT 3DC disease control rating, LV activity at 125.1 g/H [2, 3]: B (≤ 80)

Compound: COc1ccnc(C(=O)NC(C)C(=O)OC(C)C(OCC(C)C)c2ccccc2)c1O (centres unmarked) [Cmpd 819]
- SEPTTR 1DP disease control rating, HV activity at 100 ppm [1, 14]: B (≤ 80)
- SEPTTR 3DC disease control rating, HV activity at 100 ppm [1, 14]: D
- PUCCRT 1DP disease control rating, HV activity at 100 ppm [2, 14]: D
- PUCCRT 3DC disease control rating, HV activity at 100 ppm [2, 14]: B (≤ 80)

Compound: COc1ccnc(C(=O)N[C@@H](C)C(=O)O[C@@H](C)[C@H](Oc2ccc(C)cc2Cl)C2CC2)c1O [Cmpd 1005]
- SEPTTR 1DP disease control rating, HV activity at 100 ppm [1, 14]: B (≤ 80)
- SEPTTR 3DC disease control rating, HV activity at 100 ppm [1, 14]: B (≤ 80)
- PUCCRT 1DP disease control rating, HV activity at 100 ppm [2, 14]: A (> 80)
- PUCCRT 3DC disease control rating, HV activity at 100 ppm [2, 14]: A (> 80)

Compound: COc1ccnc(C(=O)NC(C)C(=O)OC(C)COC2CCCC2)c1OCOC(C)=O (centres unmarked) [Cmpd 534]
- SEPTTR 1DP, LV activity at 125.1 g/H (% Control rating) [1, 4]: D
- SEPTTR 3DC, LV activity at 125.1 g/H (% Control rating) [1, 5]: A (> 80)
- PUCCRT 1DP, LV activity at 125.1 g/H (% Control rating) [2, 4]: D
- PUCCRT 3DC, LV activity at 125.1 g/H (% Control rating) [2, 5]: A (> 80)
